Experimental findings from patent US12509424B2, “Compound and composition as PDGF receptor kinase inhibitor” (NIPPON SHINYAKU CO., LTD., priority 2019, dated 2025) are described below.

The target of experiment [1] is PDGFR-β (Homo sapiens (Human), UniProt P09619). The experiment in a line: PDGFR-β tyrosine kinase inhibitory action (HTRF KinEASE-TK). The settings on record: PDGFR-β enzyme 1 ng/μL, 30° C. for 30 minutes; read-out: PDGF-β IC50. The class given is biochemical. As for the experimental part:
(§1) 1. Preparation of Test Substance
This DMSO solution was diluted by 8 times with an assay buffer 1 (50 mM HEPES (pH 7.0), 0.02% NaN3, 0.01% Bovine Serum Albumin, 0.1 mM orthovanadate, 1 mM Dithiothreitol, 5 mM MgCl2, and 1 mM MnCl2) and further diluted by 5 times with an assay buffer 2 (50 mM HEPES (pH 7.0), 0.02% NaN3, 0.01% Bovine Serum Albumin, 0.1 mM orthovanadate, 1 mM Dithiothreitol, 5 mM MgCl2, 1 mM MnCl2, and 40 nM Supplemented Enzymatic Buffer (cisbio)).
2. Measurement of PDGFR-β Tyrosine Kinase Inhibitory Action
For the measurement, the HTRF KinEASE-TK kit from Cisbio Bioassays SAS was used. To a 384 well plate, the test substance solution was added at 4 μL each, then 2 μL of a PDGFR-β enzyme solution (final concentration of 1 ng/μL, Carna Biosciences, Inc.) and 4 μL of a substrate solution obtained by adding 0.6 μM ATP to TK substrate-3-biotin (cisbio) were added, and the solution was allowed to react at 30° C. for 30 minutes at a final concentration of the test substance being 0.01 to 10,000 nM.
Thereafter, 10 μL of a detection solution (cisbio) was added to each well and allowed to react at 30° C. for 1 hour. The fluorescence intensity was measured with a microplate reader (Spectra Max M5, Molecular device).
(§2) 3. Analysis of Measurement Results

In experiment [2] the test system is pulmonary arterial smooth muscle cells. In words: Suppression of proliferation of pulmonary arterial smooth muscle cells (PDGF-BB stimulation, BrdU). The class given is cell-based. As to conditions: healthy human derived pulmonary arterial smooth muscle cells, human PDGF-BB 10 ng/mL stimulation, BrdU uptake after 1 day, test substance final concentration 3 to 10,000 nM, read-out: Human normal PASMC proliferation suppression (PDGF stimulation_IC50). On the procedure:
as §1
Furthermore, it was diluted by 50 times with distilled water.
2. Measurement of Suppression Action Against Proliferation of Pulmonary Arterial Smooth Muscle Cells
The day after healthy human derived pulmonary arterial smooth muscle cells were seeded onto a 96 well plate using a smooth muscle cell proliferation medium, the proliferation medium was replaced with a 0.1% FBS medium, and the cells were cultured for an additional day. A test substance solution was diluted by 10 times with a medium containing BrdU and human PDGF-BB (final concentration of 10 ng/mL, Sigma-Aldrich) and added to cells in equal amounts so as to reach a final concentration of 3 to 10,000 nM. Also, to the human PDGF-BB negative control, BrdU and 0.1% DMSO solution were added. After culturing for 1 day, the amount of BrdU taken up by the proliferating cells was measured using an anti-BrdU antibody.
as §2

SMILES strings stand for the structures. Read-outs that look alike come from different tables or passages of the source.

Sequence of PDGFR-β (P09619 33-1106): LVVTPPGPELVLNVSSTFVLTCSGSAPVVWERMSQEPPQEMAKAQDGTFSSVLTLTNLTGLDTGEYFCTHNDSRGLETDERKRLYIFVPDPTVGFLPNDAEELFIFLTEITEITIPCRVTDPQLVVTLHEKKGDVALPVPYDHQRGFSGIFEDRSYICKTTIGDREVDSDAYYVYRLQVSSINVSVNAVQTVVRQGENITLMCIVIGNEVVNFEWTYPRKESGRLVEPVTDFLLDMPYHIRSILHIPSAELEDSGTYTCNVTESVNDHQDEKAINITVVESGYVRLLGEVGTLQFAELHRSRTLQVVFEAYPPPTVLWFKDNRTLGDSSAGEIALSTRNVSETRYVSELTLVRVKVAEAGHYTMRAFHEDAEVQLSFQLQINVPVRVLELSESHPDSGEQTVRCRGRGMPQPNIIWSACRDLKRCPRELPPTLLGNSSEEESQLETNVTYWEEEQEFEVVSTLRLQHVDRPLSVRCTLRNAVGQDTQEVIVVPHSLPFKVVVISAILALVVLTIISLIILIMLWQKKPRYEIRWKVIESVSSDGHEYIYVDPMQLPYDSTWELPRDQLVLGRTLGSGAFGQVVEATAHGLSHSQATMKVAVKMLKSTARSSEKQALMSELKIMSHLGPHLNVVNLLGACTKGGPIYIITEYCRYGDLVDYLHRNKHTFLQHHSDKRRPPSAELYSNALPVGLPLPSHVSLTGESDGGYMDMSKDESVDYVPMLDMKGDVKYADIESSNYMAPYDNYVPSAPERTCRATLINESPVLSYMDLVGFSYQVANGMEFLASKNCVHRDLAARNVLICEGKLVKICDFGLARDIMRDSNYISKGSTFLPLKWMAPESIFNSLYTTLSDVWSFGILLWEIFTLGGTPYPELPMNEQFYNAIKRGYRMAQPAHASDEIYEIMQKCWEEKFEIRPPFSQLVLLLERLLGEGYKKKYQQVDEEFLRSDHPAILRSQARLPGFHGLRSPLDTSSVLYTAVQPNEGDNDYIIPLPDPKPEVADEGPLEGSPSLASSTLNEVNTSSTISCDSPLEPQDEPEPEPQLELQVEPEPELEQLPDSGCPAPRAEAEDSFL

As to `Cc1ncc(C(=O)N[C@H]2CCCC[C@@H]2O)cc1/C=C(\F)c1cnc(N)nc1` [Example 190, 5-[(Z)-2-(2-aminopyrimidin-5-yl)-2-fluoroethenyl]-N-[(1S,2S)-2-hydroxycyclohexyl]-6-methylpyridine-3-carboxamide], the IC50 in experiment [1] was 110 nM; in experiment [2] (PASMC, 24 h), 110 nM. Consider `Cc1ccc(C(=O)N[C@H]2CCCC[C@@H]2O)cc1NCc1ccc(-n2ccnn2)nc1` [Example 140, N-[(1S,2S)-2-hydroxycyclohexyl]-4-methyl-3-({[6-(1H-1,2,3-triazol-1-yl)pyridin-3-yl]methyl}amino)benzamide], for which the IC50 in experiment [1] amounted to 330 nM; in experiment [2] (PASMC, 24 h), 43 nM. For the molecule `Cc1ccc(C(=O)N[C@H]2CCCC[C@@H]2O)cc1NCc1ccc(-c2ccccn2)nc1` [Example 118, 3-{[([2,2′-bipyridin]-5-yl)methyl]amino}-N-[(1S,2S)-2-hydroxycyclohexyl]-4-methylbenzamide], the IC50 came to 390 nM in experiment [1] and 140 nM in experiment [2] (PASMC, 24 h). For `COC1CC(C(=O)Nc2ccc(CNc3cc(C(=O)N[C@H]4CCCC[C@@H]4O)ccc3C)cn2)C1` (stereo partly drawn) [Example 138, N-[(1S,2S)-2-hydroxycyclohexyl]-3-{[(6-{[(1r,3r)-3-methoxycyclobutane-1-carbonyl]amino}pyridin-3-yl)methyl]amino}-4-methylbenzamide], the IC50 in experiment [1] came to 16 nM; in experiment [2] it was 51 nM. On to `Cc1ccc(C(=O)N[C@H]2CCCC[C@@H]2O)cc1NCc1cnc(NC2CCOCC2)nc1` [Example 132, N-[(1S,2S)-2-hydroxycyclohexyl]-4-methyl-3-[({2-[(oxan-4-yl)amino]pyrimidin-5-yl}methyl)amino]benzamide], for which the IC50 came out at 72 nM in experiment [1] and 73 nM in experiment [2] (PASMC, 24 h). The corresponding values for `O=C(N[C@H]1CCCC[C@@H]1O)c1ccc(Cl)c(COc2cncc(-c3ncccn3)c2)c1` [Example 170, 4-chloro-N-[(1S,2S)-2-hydroxycyclohexyl]-3-({[5-(pyrimidin-2-yl)pyridin-3-yl]oxy}methyl)benzamide] are 200 nM and 130 nM. Turning to `Cc1ccc(C(=O)N[C@@H](CO)[C@@H](O)c2ccccc2)cc1N1CCc2nc(N)ncc2C1` [Example 83, 3-(2-amino-7,8-dihydropyrido[4,3-d]pyrimidin-6(5H)-yl)-N-[(1S,2S)-1,3-dihydroxy-1-phenylpropan-2-yl]-4-methylbenzamide], the IC50 in experiment [1] is 5 nM; in experiment [2] (PASMC, 24 h) it was 48 nM.

On to `O=C(N[C@H]1CCCC[C@@H]1O)c1ccc(F)c(/C=C(\F)c2cncc(NC3COC3)c2)c1` [Example 196, 4-fluoro-3-[(Z)-2-fluoro-2-{5-[(oxetan-3-yl)amino]pyridin-3-yl}ethenyl]-N-[(1S,2S)-2-hydroxycyclohexyl]benzamide], for which the IC50 in experiment [1] was determined as 26 nM; in experiment [2] (PASMC, 24 h) it was 31 nM.

On to `Cc1ccc(C(=O)N[C@H]2CCCC[C@@H]2O)cc1CN(C)c1cncc(-c2ccccc2)c1` [Example 175, N-[(1S,2S)-2-hydroxycyclohexyl]-4-methyl-3-{[methyl(5-phenylpyridin-3-yl)amino]methyl}benzamide], for which the IC50 in experiment [1] was determined as 24 nM. The same measure, in the same setting: the result for `Cc1ccc(C(=O)N[C@H]2CCCC[C@@H]2O)cc1OC(C)c1cncc(-c2ccccc2)c1` (stereo partly drawn) [Example 172, N-[(1S,2S)-2-hydroxycyclohexyl]-4-methyl-3-[1-(5-phenylpyridin-3-yl)ethoxy]benzamide] reads 190 nM; that for `CCN(Cc1cc(C(=O)N[C@H]2CCCC[C@@H]2O)ccc1C)c1cncc(-c2ccccc2)c1` [Example 176, 3-{[ethyl(5-phenylpyridin-3-yl)amino]methyl}-N-[(1S,2S)-2-hydroxycyclohexyl]-4-methylbenzamide], 50 nM. Regarding `CC(=O)Nc1ccc(CNc2cc(C(=O)N[C@H]3CCCC[C@@H]3O)ccc2C)cn1` [Example 116, 3-{[(6-acetamidopyridin-3-yl)methyl]amino}-N-[(1S,2S)-2-hydroxycyclohexyl]-4-methylbenzamide], in experiment [2] (PASMC, 24 h), the IC50 stood at 120 nM.
